{
  "source": "patent US10064832B2",
  "about": "“Kartogenin-conjugated chitosan particles with improved sustained release property and biocombatibility, and use thereof” (priority 2014, dated 2018)",
  "tested_on": "osteoarthritis model rats",
  "assay": "Osteoarthritis regeneration after intra-articular injection in osteoarthritis animal model",
  "assay_type": "in vivo",
  "conditions": "injected into knee joints at 6 and 9 weeks after surgery, euthanized at 14 weeks",
  "procedure": "The rats were euthanized at 14 weeks, and joint tissues were separated and fixed in 10% paraformaldehyde, and then treated with 6% nitric acid for to decalcification. The tissues were embedded in a Tissue-Tek O.C.T. compound (Sakura Finetek Japan Co., Ltd.), sectioned to 10 μm and attached to a slide glass, and thereafter, staining with Safranin-O/fast green and immunofluorescence of collagen type II (COL2A1) and aggrecan were performed.",
  "data": [
    {"smiles": "O=C(O)c1ccccc1C(=O)Nc1ccc(-c2ccccc2)cc1", "note": "[kartogenin]", "values": [
      {"measurement": "COL2 protein (immunofluorescent staining)", "result": "noticeable reduction"},
      {"measurement": "aggrecan protein (immunofluorescent staining)", "result": "noticeable reduction"},
      {"measurement": "cartilage histology (Safranin-O/fast green)", "result": "weak vertical matrix cracks in a deep area of cartilage and loss and surface peeling of cartilage"}
    ]}
  ]
}
